Assay results: BindingDB's records for doi:10.1016/j.bmcl.2017.04.089 (Mcdaniel College, 2017)

Molecular target: Protein mono-ADP-ribosyltransferase PARP14 (Homo sapiens, UniProt Q460N5)
Assay: Inhibition of recombinant human His6-tagged PARP14 catalytic/WWE domain (1459 to 1801 residues) expressed in Escherichia coli BL21(DE3) preincubated for 15 mins followed by biotinylated NAD+ addition by chemiluminescence assay

Protein mono-ADP-ribosyltransferase PARP14, sequence (Q460N5 whole entry, the tested form may be a part): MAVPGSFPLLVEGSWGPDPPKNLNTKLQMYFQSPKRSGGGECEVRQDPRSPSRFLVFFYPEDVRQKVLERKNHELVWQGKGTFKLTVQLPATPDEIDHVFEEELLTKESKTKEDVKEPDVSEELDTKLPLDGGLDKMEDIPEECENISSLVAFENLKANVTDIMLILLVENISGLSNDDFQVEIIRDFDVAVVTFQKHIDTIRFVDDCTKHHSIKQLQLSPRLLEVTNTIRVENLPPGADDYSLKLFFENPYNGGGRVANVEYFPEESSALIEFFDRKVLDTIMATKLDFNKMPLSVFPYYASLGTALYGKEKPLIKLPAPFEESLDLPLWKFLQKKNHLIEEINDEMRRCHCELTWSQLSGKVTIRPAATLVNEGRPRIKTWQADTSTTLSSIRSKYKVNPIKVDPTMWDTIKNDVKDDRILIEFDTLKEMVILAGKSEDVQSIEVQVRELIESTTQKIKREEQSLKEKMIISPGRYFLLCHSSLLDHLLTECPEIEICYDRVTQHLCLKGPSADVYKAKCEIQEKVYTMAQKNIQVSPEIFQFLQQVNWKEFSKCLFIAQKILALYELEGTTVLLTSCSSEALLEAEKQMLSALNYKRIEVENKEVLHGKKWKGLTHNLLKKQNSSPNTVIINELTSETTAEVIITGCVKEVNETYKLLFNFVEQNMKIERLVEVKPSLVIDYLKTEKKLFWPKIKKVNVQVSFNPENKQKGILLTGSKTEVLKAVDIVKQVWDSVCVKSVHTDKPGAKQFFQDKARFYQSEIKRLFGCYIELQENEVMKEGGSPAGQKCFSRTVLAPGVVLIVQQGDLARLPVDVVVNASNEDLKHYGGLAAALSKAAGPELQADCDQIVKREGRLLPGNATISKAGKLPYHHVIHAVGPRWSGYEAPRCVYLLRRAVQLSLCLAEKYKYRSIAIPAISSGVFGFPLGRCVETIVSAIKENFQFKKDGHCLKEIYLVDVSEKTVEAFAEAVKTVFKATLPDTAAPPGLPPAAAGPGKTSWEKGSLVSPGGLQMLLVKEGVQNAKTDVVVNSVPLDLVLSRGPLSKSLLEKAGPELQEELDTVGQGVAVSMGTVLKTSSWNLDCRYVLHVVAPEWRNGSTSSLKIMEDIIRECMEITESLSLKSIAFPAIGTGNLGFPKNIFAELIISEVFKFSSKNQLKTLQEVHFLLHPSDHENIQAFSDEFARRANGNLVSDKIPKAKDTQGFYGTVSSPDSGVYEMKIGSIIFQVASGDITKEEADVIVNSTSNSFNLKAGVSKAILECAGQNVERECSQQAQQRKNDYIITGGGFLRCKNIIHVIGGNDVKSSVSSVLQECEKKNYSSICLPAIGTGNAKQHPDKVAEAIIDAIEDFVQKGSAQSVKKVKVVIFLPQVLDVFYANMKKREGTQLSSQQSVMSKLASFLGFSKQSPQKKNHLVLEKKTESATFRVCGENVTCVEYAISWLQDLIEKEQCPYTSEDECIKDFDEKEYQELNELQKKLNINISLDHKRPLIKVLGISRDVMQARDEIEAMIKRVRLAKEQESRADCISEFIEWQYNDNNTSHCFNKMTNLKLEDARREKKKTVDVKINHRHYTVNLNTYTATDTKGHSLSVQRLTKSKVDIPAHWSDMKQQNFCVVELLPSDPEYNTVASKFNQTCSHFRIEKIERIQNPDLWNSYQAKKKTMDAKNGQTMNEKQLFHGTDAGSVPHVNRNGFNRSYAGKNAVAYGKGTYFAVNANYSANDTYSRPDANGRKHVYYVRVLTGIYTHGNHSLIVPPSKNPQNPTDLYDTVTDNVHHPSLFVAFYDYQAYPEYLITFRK

NC(=O)c1cccc(NC(=O)/C=C\C(=O)N2CCCC(Oc3ccccc3)C2)c1 (stereo unspecified)
IC50: 1020 nM
